{"source": "patent US20030114393A1", "about": "(priority 1999, published 2003)", "key": {"MCF-7-AdrR cells [1]": {"test_system": "MCF-7-AdrR cells", "assay": "TMR (tetramethylrosamine chloride) accumulation, in vitro drug uptake model", "assay_type": "cell-based, human", "details": "for EC50: Homo sapiens, 0.5 h, read-out: concentration half maximally effective on TMR accumulation; for maximal stimulation of TMR accumulation / effect on TMR accumulation: MCF-7-AdrR cells; for maximal stimulation of TMR accumulation: 10 μM TMR, 30 minutes at 37° C., relative to TMR alone; for effect on TMR accumulation: FIG. 1A/1B", "method": "The effect of steroidal alkaloids on drug transport was examined by measuring cellular accumulation of TMR, a fluorescent model drug, according to Eytan et al. (Eytan, G. D. et al., Eur. J. Biochem. 248: 104-112, 1997) with some modifications. Cells were seeded in 24-well tissue culture plates at a density of 0.5×10^5 cells/well and were grown for 24 h in growth medium supplemented with 0.5% FCS. TMR (diluted from a 10 mM stock in DMSO) was added to the cells at a final concentration of 10 μM, in 0.5 ml of growth medium in the presence or absence of the tested alkaloids (given prior to the dye as indicated). Cells were incubated with TMR and the tested drug for 30 minutes at 37° C. To terminate the assay, the plates were placed on ice and the cells were washed three times with ice-cold phosphate-buffered saline (PBS) in order to remove residual TMR. The cells were then lysed by incubation with 0.5 ml of 0.5 N NaOH for 20 minutes at room temperature, and the lysates were neutralized with 0.5 ml of 0.5 N HCl and collected. Cell-associated TMR was determined by measuring the fluorescence intensity of the lysates using a fluorescence spectrophotometer (excitation at 555-nm, emission at 575-nm). Blank values obtained at zero time were subtracted from all the fluorescence values and the results were normalized to the amount of cellular protein in each well. Experiments were carried out in triplicates and were repeated at least twice. Results are expressed as a percentage of incubations with TMR alone.\nExpression of multidrug transporters markedly decreases drug accumulation in MDR cells. Conversely, in such cells drug accumulation is increased by inhibition of P-gp and related proteins with MDR reversal agents. TMR accumulation was utilized to examine the effect of steroidal alkaloids on P.gp in MCF-7-AdrR adriamycin-resistant human breast adenocarcinoma cells."}, "MCF-7-AdrR cells [2]": {"test_system": "MCF-7-AdrR cells", "assay": "cells", "details": "for reduction of cell viability by adriamycin in the presence of the steroidal alkaloid: 10 μM alkaloid fixed, increasing adriamycin up to 10 μM, compared with drug-free incubations; for EC50: Homo sapiens, read-out: EC50 of sensitization of the cells to adriamycin; for reduction of cell survival by the steroidal alkaloid alone: alkaloid alone (10 μM), MCF-7-AdrR, MTT", "method": "Cells were plated in 96-well plates at a density of 4×10^3 cells/well in 0.1 ml drug-free DMEM containing 5% fetal calf serum, and incubated at 37° C. for 48 h. After this time, cytotoxic drugs (adriamycin or vinblastine) were added to the wells at the indicated concentrations, in the absence or presence of the tested steroidal alkaloids, and the cells were further incubated for an additional 48-72 h. The cytotoxic activity of the drugs was then determined using a standard MTT cell survival assay (Hansen, M. B. et al., J. Immunol. Meth 119: 203-210. The […] reagent (diluted from a 5 mg/ml solution in PBS) was added to all the wells at a final concentration of 0.6 mg/ml and the cells were further incubated at 37° C. for 2 or 3 h. The reaction was terminated by adding 100 μl/well of an extraction solution consisting of 20% (w/v) sodium dodecyl sulfate (SDS) in 50% aqueous dimethyl formamide solution, pH 4.8. The plates were left overnight at room temperature in the dark, following which the absorbance was read at 570-nm using an ELISA plate reader. […] Data points represent the mean±S.D. of a quadruplicate determination from a representative experiment that was repeated at least twice. The results are expressed as a percentage of control, drug-free wells.\nThe cytotoxic effect of the drugs was evaluated by utilizing the MTT cell viability assay, a standard assay for assessing drug resistance and its reversal. Routinely, MCF-7-AdrR cells were exposed to increasing concentrations of drugs for 48 h and the number of viable cells was quantitated after adding the MTT reagent."}, "[3]": {"details": "literature (Keeler, 1978; Gaffield and Keeler, 1996); cited from earlier work"}, "[4]": {"details": "10 μM tested compound, increasing vinblastine, 48 h, FIG. 5"}}, "note": "Where two headings read alike, the source gives them in different places.", "data": [{"compound": "C[C@H]1CC[C@]2(NC1)O[C@H]1C[C@H]3[C@@H]4CC[C@H]5C[C@@H](O)CC[C@]5(C)[C@H]4CC[C@]3(C)[C@H]1[C@@H]2C", "note": "[tomatidine]", "values": [{"measurement": "EC50", "setting": "MCF-7-AdrR cells [1]", "result": "~1", "unit": "µM"}, {"measurement": "maximal stimulation of TMR accumulation", "setting": "MCF-7-AdrR cells [1]", "result": 2.5, "unit": "fold"}, {"measurement": "effect on TMR accumulation", "setting": "MCF-7-AdrR cells [1]", "result": "concentration-dependent increase"}, {"measurement": "reduction of cell viability by adriamycin in the presence of the steroidal alkaloid", "setting": "MCF-7-AdrR cells [2]; 48 h", "result": "more than 90%"}, {"measurement": "EC50", "setting": "MCF-7-AdrR cells [2]; 48 h", "result": 5, "unit": "µM"}, {"measurement": "reduction of cell survival by the steroidal alkaloid alone", "setting": "MCF-7-AdrR cells [2]; 48 h", "result": "modest cytotoxic activity of its own"}, {"measurement": "reduction of cell survival by the steroidal alkaloid alone", "setting": "MCF-7-AdrR cells [2]; 48 h, listed as Tomatidine", "result": "20-25%"}, {"measurement": "teratogenic activity", "setting": "[3]", "result": "no teratogenic activity"}]}, {"compound": "COc1ccc(CCN(C)CCCC(C#N)(c2ccc(OC)c(OC)c2)C(C)C)cc1OC", "note": "(stereo not drawn) [verapamil, reference compound]", "values": [{"measurement": "effect on TMR accumulation", "setting": "MCF-7-AdrR cells [1]", "result": "back to near normal levels"}, {"measurement": "effect on drug (adriamycin) sensitivity of MCF-7-AdrR cells", "setting": "MCF-7-AdrR cells [2]; preliminary experiments, data not shown", "result": "markedly increase their drug sensitivity"}]}, {"compound": "C[C@@H]1CN[C@H]2[C@@H](C)[C@@]3(CC[C@H]4[C@@H]5CC[C@H]6C[C@@H](O)CC[C@]6(C)[C@H]5C(=O)[C@@H]4[C@H]3C)O[C@@H]2C1", "note": "[tetrahydrojervine]", "values": [{"measurement": "sensitization to vinblastine: shift of concentration-response curve to the left", "setting": "MCF-7-AdrR cells [2]; [4]", "result": "most effective"}]}, {"compound": "CC1=C2C[C@H]3[C@@H](CC=C4C[C@@H](O)CC[C@@]43C)[C@@H]2CC[C@]12O[C@@H]1C[C@H](C)CN[C@H]1[C@H]2C", "note": "[cyclopamine]", "values": [{"measurement": "EC50", "setting": "MCF-7-AdrR cells [1]", "result": "~1", "unit": "µM"}, {"measurement": "maximal stimulation of TMR accumulation", "setting": "MCF-7-AdrR cells [1]", "result": 2, "unit": "fold"}, {"measurement": "effect on TMR accumulation", "setting": "MCF-7-AdrR cells [1]", "result": "concentration-dependent increase"}, {"measurement": "reduction of cell viability by adriamycin in the presence of the steroidal alkaloid", "setting": "MCF-7-AdrR cells [2]; 48 h", "result": "~90", "unit": "%"}, {"measurement": "EC50", "setting": "MCF-7-AdrR cells [2]; 48 h", "result": 2.5, "unit": "µM"}, {"measurement": "reduction of cell survival by the steroidal alkaloid alone", "setting": "MCF-7-AdrR cells [2]; 48 h", "result": "10-20%"}, {"measurement": "teratogenic activity", "setting": "[3]", "result": "potent teratogen"}]}, {"compound": "Cc1c([C@H](C)[C@@H]2NC[C@@H](C)C[C@H]2O)ccc2c1C[C@H]1[C@H]2CC=C2C[C@@H](O)CC[C@@]21C", "note": "[veratramine]", "values": [{"measurement": "sensitization to vinblastine", "setting": "MCF-7-AdrR cells [2]; 1 μM veratramine, increasing vinblastine, 48 h, FIG. 5", "result": "sensitize"}]}, {"compound": "cyclopamine-4en-3-one [cylopamine4-en-3-one]", "values": [{"measurement": "sensitization to vinblastine: shift of concentration-response curve to the left", "setting": "MCF-7-AdrR cells [2]", "result": "most effective"}]}, {"compound": "CC1=C2C(=O)[C@H]3[C@@H](CC=C4C[C@@H](O)CC[C@@]43C)[C@@H]2CC[C@]12O[C@@H]1C[C@H](C)CN[C@H]1[C@H]2C", "note": "[jervine]", "values": [{"measurement": "sensitization to vinblastine: shift of concentration-response curve to the left", "setting": "MCF-7-AdrR cells [2]; [4]", "result": "most effective"}]}]}
